# Reference: patent US11066412B2, “Substituted pyrrolo[2,1-a]phthalazines and benzo[g]pyrrolo[2,1-a]phthalazines for the treatment of cancer” (Academia Sinica, priority 2017, dated 2021)
# Read-outs that look alike come from different tables or passages of the source.
# Legend:
# [1] = test system: vinblastine-resistant sub-cell line (CCRF-CEM/VBL); test: in vitro cytotoxicity, PrestoBlue assay; format: cell-based, human; details: for IC50: read-out: IC50 CEM/VBL; for resistance factor (IC50 CEM/VBL vs IC50 of the parent cell line): number in brackets
# Procedure: (§1) All representative compounds of Formulae (I-A) and (I-B) were first evaluated for their in vitro cytotoxicity to human lymphoblastic leukemia cell line (CCRF-CEM) and its vinblastine-resistant sub-cell line (CCRF-CEM/VBL) (see Table 1).
# (§2) After a 72-hr incubation in various concentrations of the newly synthesized compounds, the cytotoxic effects of them to all cell lines were determined by the PrestoBlue®(Invitrogen) assay using a microplate spectrophotometer. Briefly, at the end of treatment, an aliquot of PrestoBlue® solution was added and then cells were incubated at 37° C. for 1-2 hr. The absorbance at 570 and 600 nm was measured with a microplate reader. […] The ICso is defined by the concentration required to inhibit tumor cell growth by 50%. Data represent the mean±STDEV of three to six independent experiments for each compound.
# [2] = test system: human lymphoblastic leukemia cell line (CCRF-CEM); test: in vitro cytotoxicity, PrestoBlue assay; format: cell-based; details: read-out: IC50 CCRF-CEM
# Procedure: as §1, §2
# [3] = test system: non-small cell lung cancer H460; test: in vitro cytotoxicity, PrestoBlue assay; format: cell-based, human; details: Table 2
# Procedure: as §1, §2
# pancreatic cancer PacaS1 = test: in vitro cytotoxicity, PrestoBlue assay; format: cell-based, human; details: Table 2
# Procedure: as §1, §2
# colon cancer HCT-116 = test: in vitro cytotoxicity, PrestoBlue assay; format: cell-based, human; details: Table 2
# Procedure: as §1, §2
# [4] = test system: small cell lung cancer H526; test: in vitro cytotoxicity, PrestoBlue assay; format: cell-based, human; details: read-out: IC50 H526
# H1417 = test: in vitro cytotoxicity to SCLC cells; format: cell-based, human; details: Table 3
# Procedure: as §2
# H146 = test: in vitro cytotoxicity to SCLC cells; format: cell-based, human; details: Table 3
# Procedure: as §2
# H211 = test: in vitro cytotoxicity to SCLC cells; format: cell-based, human; details: Table 3
# Procedure: as §2
# H82 = test: in vitro cytotoxicity to SCLC cells; format: cell-based, human; details: Table 3
# Procedure: as §2
# [5] = 72-hr incubation, mean ± STDEV of three to six experiments
# [6] = Homo sapiens, CCRF-CEM, footnote d: IC50 values in nM
Structure (SMILES),"IC50 [1, 5]",resistance factor (IC50 CEM/VBL vs IC50 of the parent cell line) [1],"IC50 [2, 5]",also measured
Cc1c(COC(=O)NC(C)C)c(COC(=O)NC(C)C)c2c3ccccc3c(N(C)C)nn12 [BO-2787],970 ± 170 nM,0.63 ×,1540 ± 220 nM,
Cc1c(COC(=O)NC(C)C)c(COC(=O)NC(C)C)c2c3ccccc3c(N3CCCCC3)nn12 [BO-2722],1730 ± 90 nM,0.90 ×,1920 ± 110 nM,
COc1ccc(-c2c(CO)c(CO)c3c4ccccc4c(N4CCOCC4)nn23)cc1 [BO-2629],5750 ± 620 nM,0.86 ×,6630 ± 1740 nM,IC50 [3]: 18.7 ± 1.81 µM; IC50 Paca SI (pancreatic cancer PacaS1): 36.63 ± 1.04 µM; IC50 (colon cancer HCT-116): 5.2 ± 0.43 µM; IC50 ([4]; Table 2): 1.95 ± 0.26 µM
CCNC(=O)OCc1c(COC(=O)NCC)c2c3ccccc3c(N3CCCCC3)nn2c1C [BO-2721],1230 ± 200 nM,0.96 ×,1280 ± 90 nM,
"CCNC(=O)OCc1c(COC(=O)NCC)c2c3cc4ccccc4cc3c(N(C)C)nn2c1C [BO-2772, (6-(Dimethylamino)-3-methylbenzo[g]pyrrolo[2,1-α]phthalazine-1,2-diyl)-bis(methylene) bis(ethylcarbamate)]",99 ± 6 nM,0.71 ×,138 ± 8 nM,IC50 ([4]; Table 3): 0.27 ± 0.31 µM; IC50 (H1417): 1.01 ± 0.49 µM; IC50 (H146): 1.67 ± 0.24 µM; IC50 (H211): 0.32 ± 0.2 µM; IC50 (H82): 0.52 ± 0.16 µM
"CC[C@]1(O)C[C@@H]2CN(CCc3c([nH]c4ccccc34)[C@@](C(=O)OC)(c3cc4c(cc3OC)N(C)[C@H]3[C@@](O)(C(=O)OC)[C@H](OC(C)=O)[C@]5(CC)C=CCN6CC[C@]43[C@@H]65)C2)C1 [Vinblastine, reference compound]",,278.3 ×,,"IC50 [1, 6]: 392 ± 44.8 nM; IC50 [2, 6]: 1.41 ± 0.1 nM"
"N.N.O=C([O-])C1(C(=O)[O-])CCC1.[Pt+2] [Carboplatin, reference compound]",,,,IC50 ([4]; Table 3): 6.43 ± 0.14 µM; IC50 (H1417): 8.64 ± 1.93 µM; IC50 (H146): 37.1 ± 6.38 µM; IC50 (H211): 13.9 ± 1.56 µM
Cc1c(COC(=O)NC(C)C)c(COC(=O)NC(C)C)c2c3ccccc3c(N3CCOCC3)nn12 [BO-2574],960 ± 160 nM,0.82 ×,1170 ± 180 nM,
Cc1c(COC(=O)NC(C)C)c(COC(=O)NC(C)C)c2c3ccccc3c(N3CCCC3)nn12 [BO-2717],3160 ± 180 nM,0.77 ×,4110 ± 150 nM,
"CCNC(=O)OCc1c(COC(=O)NCC)c2c3cc4ccccc4cc3c(N3CCCC3)nn2c1C [BO-2763, (3-Methyl-6-(pyrrolidin-1-yl)benzo[g]pyrrolo[2,1-α]phthalazine-1,2-diyl)-bis(methylene) bis(ethylcarbamate)]",250 ± 60 nM,0.59 ×,420 ± 70 nM,IC50 ([4]; Table 3): 0.18 ± 0.06 µM; IC50 (H1417): 1.15 ± 0.15 µM; IC50 (H146): 2.16 ± 0.5 µM; IC50 (H211): 0.68 ± 0.59 µM; IC50 (H82): 1.58 ± 1.37 µM
CCNC(=O)OCc1c(COC(=O)NCC)c2c3ccccc3c(N3CCOCC3)nn2c1CC [BO-2625],5110 ± 910 nM,1.48 ×,3440 ± 820 nM,
CCNC(=O)OCc1c(COC(=O)NCC)c2c3ccccc3c(N(C)C)nn2c1C [BO-2786],550 ± 60 nM,0.75 ×,730 ± 50 nM,IC50 [3]: 3.47 ± 0.47 µM; IC50 Paca SI (pancreatic cancer PacaS1): 8.01 ± 1.40 µM; IC50 (colon cancer HCT-116): 2.45 ± 0.65 µM; IC50 ([4]; Table 2): 0.57 ± 0.09 µM
"Cc1c(CO)c(CO)c2c3ccccc3c(N3CCOCC3)nn12 [BO-2571, (3-Methyl-6-morpholinopyrrolo[2,1-α]phthalazine-1,2-diyl)dimethanol]",560 ± 60 nM,0.74 ×,760 ± 30 nM,IC50 [3]: 2.64 ± 0.52 µM; IC50 Paca SI (pancreatic cancer PacaS1): 2.16 ± 0.09 µM; IC50 (colon cancer HCT-116): 1.67 ± 0.18 µM; IC50 ([4]; Table 2): 0.1 ± 0.01 µM
"CCNC(=O)OCc1c(COC(=O)NCC)c2c3ccccc3c(N3CCOCC3)nn2c1C [BO-2573, (3-Methyl-6-morpholinopyrrolo[2,1-a]phthalazine-1,2-diyl)bis(methylene)bis(ethylcarbamate)]",450 ± 30 nM,0.65 ×,690 ± 220 nM,IC50 [3]: 2.48 ± 0.73 µM; IC50 Paca SI (pancreatic cancer PacaS1): 17.23 ± 3.48 µM; IC50 (colon cancer HCT-116): 1.7 ± 0.21 µM; IC50 ([4]; Table 2): 0.21 ± 0.03 µM
Cc1c(CO)c(CO)c2c3ccccc3c(N3CCCCC3)nn12 [BO-2720],1330 ± 130 nM,1.28 ×,1040 ± 120 nM,
Cc1c(CO)c(CO)c2c3ccccc3c(N(C)C)nn12 [BO-2785],2940 ± 260 nM,0.88 ×,3330 ± 390 nM,
"COc1cc([C@@H]2c3cc4c(cc3[C@@H](O[C@@H]3O[C@@H]5CO[C@@H](C)O[C@H]5[C@H](O)[C@H]3O)[C@H]3COC(=O)[C@H]23)OCO4)cc(OC)c1O [Etoposide, reference compound]",,,,"IC50 ([4]; Homo sapiens, NCI-H526, Table 3): 0.2 ± 0.26 µM; IC50 (H1417; Homo sapiens, NCI-H1417): 4.53 ± 3.18 µM; IC50 (H146; Homo sapiens, NCI-H146): 2.91 ± 0.17 µM; IC50 (H211; Homo sapiens, NCI-H211): 0.07 ± 0.01 µM; IC50 (H82; Homo sapiens, NCI-H82): 1.08 ± 0.42 µM"
COc1ccc(-c2c(COC(=O)NC(C)C)c(COC(=O)NC(C)C)c3c4ccccc4c(N4CCOCC4)nn23)cc1 [BO-2631],3070 ± 430 nM,1.07 ×,2850 ± 1520 nM,
CCNC(=O)OCc1c(COC(=O)NCC)c2c3cc4ccccc4cc3c(N3CCCCC3)nn2c1C [BO-2757],1200 ± 140 nM,1.26 ×,950 ± 50 nM,IC50 ([4]; Table 3): 0.54 ± 0.18 µM; IC50 (H1417): 3.94 ± 0.11 µM; IC50 (H146): 4.19 ± 0.7 µM; IC50 (H211): 1.03 ± 0.25 µM; IC50 (H82): 1.58 ± 0.01 µM
CCc1c(COC(=O)NC(C)C)c(COC(=O)NC(C)C)c2c3ccccc3c(N3CCOCC3)nn12 [BO-2626],1580 ± 200 nM,0.43 ×,3680 ± 250 nM,
CCNC(=O)OCc1c(COC(=O)NCC)c2c3cc4ccccc4cc3c(N3CCC(N4CCCCC4)CC3)nn2c1C [BO-2793],104 ± 28 nM,1.82 ×,57 ± 4 nM,IC50 ([4]; Table 3): 0.01 ± 0.003 µM; IC50 (H1417): 0.13 ± 0.09 µM; IC50 (H146): 0.31 ± 0.21 µM; IC50 (H211): 0.06 ± 0.02 µM; IC50 (H82): 0.09 ± 0.04 µM
CCNC(=O)OCc1c(COC(=O)NCC)c2c3cc4ccccc4cc3c(N3CCOCC3)nn2c1C [BO-2756],320 ± 40 nM,1.03 ×,310 ± 20 nM,IC50 ([4]; Table 3): 0.15 ± 0.087 µM; IC50 (H1417): 0.81 ± 0.02 µM; IC50 (H146): 1.51 ± 0.83 µM; IC50 (H211): 0.13 ± 0.1 µM; IC50 (H82): 0.74 ± 0.39 µM
CCNC(=O)OCc1c(COC(=O)NCC)c2c3ccccc3c(N3CCOCC3)nn2c1-c1ccc(OC)cc1 [BO-2630],7210 ± 250 nM,1.18 ×,6120 ± 880 nM,
